Measured values as given in patent US9701669B2, “Preparation and use of 7a-amide substituted- 6,6-difluoro bicyclic himbacine derivatives as PAR-1 receptor antagonists” (Merck Sharp & Dohme Corp., priority 2013, dated 2017).
Read-outs that look alike come from different tables or passages of the source.

Experiments:
[1] = biological target: PAR-1 receptor (Homo sapiens (Human), UniProt P25116); assay: PAR-1 FLIPR Assay; format: cell-based; details: for IC50: HEK 293 cells, calcium signal after PAR-1 selective receptor-activating peptide at 80% activation
Experimental: This assay measures the potency of the inventive compounds as PAR-1 receptor antagonists.
Frozen HEK 293 Cells were plated in 384-well PDL coated plates at 12000 cells/well in 50 uL of DMEM media containing 10% FBS, pen/strep/L-Glutamine and non-essential amino acids, incubated overnight at 37° C./5% CO2. Media was then removed from the cells, incubated with 33 ul of Calcium-5 dye in assay buffer (Hank's buffer containing 20 mM HEPES, 0.04% Chaps and 2.5 mM Probenecid) for 60 minutes at 37° C. 2 uL of varying concentrations of compound in 40% DMSO in assay buffer (final DMSO concentration is 2.3%) were then added to the cells and incubated at 25° C. for 30 minutes. […] The range of peptide was from 1.5-3 μM. The final volume was 40 uL/well, with 2% DMSO. […] The data were analyzed by taking the peak signal over a portion of the range of the 60 scans and dividing this signal by the minimum signal for that same range.

[2] = biological target: human Ether-á-go-go Related Gene (hERG) ion channel (Homo sapiens (Human), UniProt Q12809); assay: MK-499 Filter Binding Assay
Experimental: This assay is used to evaluate the potential of a compound to cause drug-induced long QT syndrome.
Drug cardiac arrhythmia is an important safety concern for pharmaceutical development and health regulatory authorities.
Then, 30 μL wash buffer (10 mM HEPES/NaOH, pH 7.4, 130 mM NaCl, 2 mM MgCl2, 1 mM CaCl2) equilibrated to RT were added to each well of the assay plate and subsequently transferred to the filter plate. The assay mixture was aspirated through the filter plate using a Biotek ELx405™ washer. The filter plate was washed twice with 100 μl cold wash buffer per wash and well and then dried in a drying oven for at least 75 min at 55° C. Afterwards, the bottom of each filter plate was heat sealed with a solid foil seal, then 10 μL of Microscint™ 0 (Perkin Elmer) were added to each well of the filter plate and finally, the top of each filter plate was sealed with a clear seal. The plates were stored for at least 20 min in a MicroBeta2 reader (Perkin Elmer) before they are counted (60 sec/well).

[3] = membranes from HEK293 cell line expressing hERG, [35S]MK-0499 radioligand, read-out: MK499 IC50

PAR-1 receptor, sequence (P25116 22-425): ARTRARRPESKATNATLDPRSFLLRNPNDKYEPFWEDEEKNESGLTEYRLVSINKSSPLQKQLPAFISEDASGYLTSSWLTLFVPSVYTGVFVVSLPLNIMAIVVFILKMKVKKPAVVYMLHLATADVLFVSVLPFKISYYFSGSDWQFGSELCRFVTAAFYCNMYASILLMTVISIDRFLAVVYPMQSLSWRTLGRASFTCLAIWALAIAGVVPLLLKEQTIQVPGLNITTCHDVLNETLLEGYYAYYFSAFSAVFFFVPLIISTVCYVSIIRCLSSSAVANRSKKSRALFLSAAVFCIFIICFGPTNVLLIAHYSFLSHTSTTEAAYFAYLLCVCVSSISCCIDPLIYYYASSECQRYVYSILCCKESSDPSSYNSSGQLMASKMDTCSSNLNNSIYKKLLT
human Ether-á-go-go Related Gene (hERG) ion channel, sequence (Q12809 whole entry): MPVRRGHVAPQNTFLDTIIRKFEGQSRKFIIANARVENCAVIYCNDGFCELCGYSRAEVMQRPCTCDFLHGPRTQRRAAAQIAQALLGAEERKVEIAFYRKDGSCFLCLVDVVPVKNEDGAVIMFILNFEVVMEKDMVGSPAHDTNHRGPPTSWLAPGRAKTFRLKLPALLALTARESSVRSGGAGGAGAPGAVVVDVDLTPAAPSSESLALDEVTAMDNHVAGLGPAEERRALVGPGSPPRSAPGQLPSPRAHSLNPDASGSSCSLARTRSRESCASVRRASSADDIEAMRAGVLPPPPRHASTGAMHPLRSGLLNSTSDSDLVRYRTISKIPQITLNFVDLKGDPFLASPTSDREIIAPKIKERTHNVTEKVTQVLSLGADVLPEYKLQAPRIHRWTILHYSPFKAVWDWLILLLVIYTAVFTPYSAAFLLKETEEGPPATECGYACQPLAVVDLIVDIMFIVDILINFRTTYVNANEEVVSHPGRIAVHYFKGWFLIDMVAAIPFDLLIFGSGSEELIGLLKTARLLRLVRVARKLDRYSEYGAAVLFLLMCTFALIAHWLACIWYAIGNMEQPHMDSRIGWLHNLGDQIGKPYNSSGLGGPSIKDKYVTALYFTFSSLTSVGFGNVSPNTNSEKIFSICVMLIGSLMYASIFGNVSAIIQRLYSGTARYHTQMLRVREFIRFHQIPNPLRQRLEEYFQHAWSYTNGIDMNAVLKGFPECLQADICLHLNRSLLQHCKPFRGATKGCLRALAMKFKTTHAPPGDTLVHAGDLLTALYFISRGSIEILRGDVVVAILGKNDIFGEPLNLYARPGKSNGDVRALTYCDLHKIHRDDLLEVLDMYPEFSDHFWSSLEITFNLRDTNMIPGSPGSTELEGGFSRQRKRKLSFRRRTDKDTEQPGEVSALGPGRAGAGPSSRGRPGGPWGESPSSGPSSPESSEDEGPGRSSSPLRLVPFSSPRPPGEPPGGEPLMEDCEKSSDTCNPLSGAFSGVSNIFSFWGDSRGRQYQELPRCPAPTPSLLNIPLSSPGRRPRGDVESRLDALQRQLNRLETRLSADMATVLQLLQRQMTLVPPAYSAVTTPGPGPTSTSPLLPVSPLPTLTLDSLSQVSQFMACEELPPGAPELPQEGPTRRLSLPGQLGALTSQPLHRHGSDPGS

SMILES | IC50 [1] | IC50 [2, 3] | IC50 ([2]; human, pH 7.4) | PAR-1 FLIPR IC50 ([1]; unit printed as 'mn' (apparent misprint of nM), same assay as E1, unit of the source corrected)
C[C@H]1OC(=O)[C@]2(N3CC(C(N)=O)C3)CC(F)(F)[C@@H](C)[C@H](/C=C/c3ccc(-c4ccccc4C#N)cn3)[C@H]12 [Example 12, 1-((1R,3aS,6S,7R,7aS)-7-((E)-2-(5-(2-cyanophenyl)pyridin-2-yl)vinyl)-5,5-difluoro-1,6-dimethyl-3-oxo-octahydroisobenzofuran-3a-yl)azetidine-3-carboxamide] | 5.7 nM | 16300 nM |  | 
COc1ncccc1-c1ccc(/C=C/[C@@H]2[C@@H]3[C@@H](C)OC(=O)[C@]3(CC(N)=O)CC(F)(F)[C@H]2C)nc1 [Example 16, 2-((1R,3aR,6S, 7R,7aS)-5,5-difluoro-7-((E)-2-(2′-methoxy-[3,3′-bipyridin]-6-yl)vinyl)-1,6-dimethyl-3-oxooctahydro-isobenzofuran-3a-yl)acetamide] | 104 nM | 25900 nM |  | 
C[C@H]1OC(=O)[C@]2(NCC(N)=O)CC(F)(F)[C@@H](C)[C@H](/C=C/c3ccc(-c4ccccc4C#N)cn3)[C@H]12 [Example 18, 2-(((1R,3aS,6S,7R,7aS)-7-((E)-2-(5-(2-cyanophenyl)pyridin-2-yl)vinyl)-5,5-difluoro-1,6-dimethyl-3-oxooctahydroisobenzofuran-3a-yl)amino)acetamide] | 4.3 nM |  |  | 
C[C@H]1OC(=O)[C@]2(CCC(N)=O)CC(F)(F)[C@@H](C)[C@H](/C=C/c3ccc(-c4cccnc4C#N)cn3)[C@H]12 [Example 15, 3-((1R,3aR,6S, 7R,7aS)-7-((E)-2-(2′-cyano-[3,3′-bipyridin]-6-yl)vinyl)-5,5-difluoro-1,6-dimethyl-3-oxooctahydro-isobenzofuran-3a-yl)propanamide] | 6.34 nM |  | 60000 nM | 
C[C@H]1OC(=O)[C@]2(C(O)C(N)=O)CC(F)(F)[C@@H](C)[C@H](/C=C/c3ccc(-c4ccccc4C#N)cn3)[C@H]12 (mixture of isomers) [Example 20, (S and R)-2-((1R,3aR,6S, 7R,7aS)-7-((E)-2-(5-(2-cyanophenyl)pyridin-2-yl)vinyl)-5,5-difluoro-1,6-dimethyl-3-oxooctahydro-isobenzofuran-3a-yl)-2-hydroxyacetamide] | 4.41 nM |  |  | 
C[C@H]1OC(=O)[C@]2(C(C)(C)C(N)=O)CC(F)(F)[C@@H](C)[C@H](/C=C/c3ccc(-c4ccccc4C#N)cn3)[C@H]12 [Example 21, 2-((1R,3aR,6S,7R,7aS)-7-((E)-2-(5-(2-cyanophenyl)pyridin-2-yl)vinyl)-5,5-difluoro-1,6-dimethyl-3-oxooctahydroisobenzofuran-3a-yl)-2-methylpropanamide] | 17.1 nM |  |  | 
C[C@H]1OC(=O)[C@]2(N3CC(C(N)=O)C3)CC(F)(F)[C@@H](C)[C@H](/C=C/c3ccc(-c4cccc(F)c4)cn3)[C@H]12 [Example 13, 1-((1R,3aS,6S, 7R,7aS)-5,5-difluoro-7-((E)-2-(5-(3-fluorophenyl)pyridin-2-yl)vinyl)-1,6-dimethyl-3-oxo-octahydro-isobenzofuran-3a-yl)azetidine-3-carboxamide] | 13.9 nM |  |  | 
C[C@H]1OC(=O)[C@]2(C(N)=O)CC(F)(F)[C@@H](C)[C@H](/C=C/c3ccc(-c4cccc5c4OC(F)(F)O5)cn3)[C@H]12 [Example 10, (1R,3aR,6S,7R,7aS)-7-((E)-2-(5-(2,2-difluorobenzo[d][1,3]dioxol-4-yl)pyridin-2-yl)vinyl)-5,5-difluoro-1,6-dimethyl-3-oxooctahydroisobenzofuran-3a-carboxamide] | 4.49 nM | 15400 nM |  | 
C[C@H]1OC(=O)[C@]2(CC(N)=O)CC(F)(F)[C@@H](C)[C@H](/C=C/c3ccc(-c4cccnc4C#N)cn3)[C@H]12 [Example 17, 2-((1R,3aR,6S, 7R,7aS)-7-((E)-2-(2′-cyano-[3,3′-bipyridin]-6-yl)vinyl)-5,5-difluoro-1,6-dimethyl-3-oxooctahydro-isobenzofuran-3a-yl)acetamide] | 21.2 nM |  |  | 
C[C@H]1OC(=O)[C@]2(C(N)=O)CC(F)(F)[C@@H](C)[C@H](/C=C/c3ccc(-c4cccnc4C#N)cn3)[C@H]12 [Example 11] | 9.68 nM | 60000 nM |  | 
Cc1cccc(-c2ccc(/C=C/[C@@H]3[C@@H]4[C@@H](C)OC(=O)[C@]4(C(N)=O)CC(F)(F)[C@H]3C)nc2)c1F [Example 2, (1R,3aR,6S,7R, 7aS)-5,5-difluoro-7-((E)-2-(5-(2-fluoro-3-methylphenyl)pyridin-2-yl)vinyl)-1,6-dimethyl-3-oxooctahydro-isobenzofuran-3a-carboxamide] | 3.8 nM | 13000 nM |  | 
C[C@H]1OC(=O)[C@]2(CC(N)=O)CC(F)(F)[C@@H](C)[C@H](/C=C/c3ccc(-c4ccccc4C#N)cn3)[C@H]12 [Example 5, 2-((1R,3aR,6S,7R,7aS)-7-((E)-2-(5-(2-cyanophenyl)pyridin-2-yl)vinyl)-5,5-difluoro-1,6-dimethyl-3-oxooctahydroisobenzofuran-3a-yl)acetamide] | 3.14 nM |  |  | 
Cc1c(F)cccc1-c1ccc(/C=C/[C@@H]2[C@@H]3[C@@H](C)OC(=O)[C@]3(C(N)=O)CC(F)(F)[C@H]2C)nc1 [Example 3, (1R,3aR, 6S,7R,7aS)-5,5-difluoro-7-((E)-2-(5-(3-fluoro-2-methylphenyl)pyridin-2-yl)vinyl)-1,6-dimethyl-3-oxooctahydro-isobenzofuran-3a-carboxamide] | 1.37 nM | 12000 nM |  | 
Cc1nc(/C=C/[C@@H]2[C@@H]3[C@@H](C)OC(=O)[C@]3(C(N)=O)CC(F)(F)[C@H]2C)ccc1-c1ccccc1C#N [Example 4, (1R,3aR,6S,7R, 7aS)-7-((E)-2-(5-(2-cyanophenyl)-6-methylpyridin-2-yl)vinyl)-5,5-difluoro-1,6-dimethyl-3-oxooctahydro-isobenzofuran-3a-carboxamide] |  |  | 60000 nM | 
C[C@H]1OC(=O)[C@]2(C(N)=O)CC(F)(F)[C@@H](C)[C@H](/C=C/c3ccc(-c4ccccc4C#N)cn3)[C@H]12 [Example 1, (1R,3aR,6S,7R,7aS)-7-((E)-2-(5-(2-cyanophenyl)pyridin-2-yl)vinyl)-5,5-difluoro-1,6-dimethyl-3-oxooctahydroisobenzofuran-3a-carboxamide] | 2.93 nM |  |  | 
C[C@H]1OC(=O)[C@]2(CCC(N)=O)CC(F)(F)[C@@H](C)[C@H](/C=C/c3ccc(-c4ccccc4C#N)cn3)[C@H]12 [Example 14, 3-((1R,3aR,6S,7R,7aS)-7-((E)-2-(5-(2-cyanophenyl)pyridin-2-yl)vinyl)-5,5-difluoro-1,6-dimethyl-3-oxooctahydroisobenzofuran-3a-yl)propanamide] | 4.4 nM |  |  | 
COC(C(N)=O)[C@@]12CC(F)(F)[C@@H](C)[C@H](/C=C/c3ccc(-c4ccccc4C#N)cn3)[C@@H]1[C@@H](C)OC2=O (mixture of isomers) [Example 19, (S and R)-2-((1R,3aR,6S,7R,7aS)-7-((E)-2-(5-(2-cyanophenyl)pyridin-2-yl)vinyl)-5,5-difluoro-1,6-dimethyl-3-oxooctahydroisobenzofuran-3a-yl)-2-methoxyacetamide] |  | 47700 nM |  | 3.02 nM
